Assays:
[1] = NOVARTIS: Cytotoxicity against human hepatocellular carcinoma cell line (Huh7); assay type: toxicity, cell-based, Huh-7; conditions: Huh7 cells (hepatocellular carcinoma cell line)
[2] = system: Plasmodium falciparum; assay: NOVARTIS: Inhibition of Plasmodium falciparum W2 (drug-resistant) proliferation in erythrocyte-based infection assay; assay type: functional, organism-based; conditions: Plasmodium falciparum, W2; read-out: EC50
[3] = system: Plasmodium falciparum; assay: NOVARTIS: Inhibition of Plasmodium falciparum 3D7 (drug-susceptible) proliferation in erythrocyte-based infection assay; assay type: functional, organism-based; conditions: Plasmodium falciparum, 3D7

Compound	CC50 [1] [nM]	EC50 [2] [nM]	EC50 [3] [nM]
Oc1ccccc1Nc1nc(NC2CCCC2)c2ccccc2n1	16700	877	530
COc1ccc(-c2cc(-c3ccccc3)nc(SCC(=O)N3c4ccccc4Sc4ccc(Cl)cc43)c2C#N)cc1	> 10000	> 1530	> 427
O=C1c2cccc3cccc(c23)C(=O)N1c1ccc(-c2c3ccccc3c(-c3ccc(N4C(=O)c5cccc6cccc(c56)C4=O)cc3)c3ccccc23)cc1	> 10000	1000	1050
CC1CCC(C(C)C)C(OC(=O)Cn2c(-c3ccccc3)[n+](C)c3ccccc32)C1 (centres undefined)	> 11200	426	376
COc1ccc(-c2nc3ccccc3n2C2CCN(Cc3ccc(C)o3)CC2)cc1OC	> 10000	26.7	> 1250
CCN(CC)CCNc1nc2cc(OC)c(OC)cc2c2nc(-c3ccccc3)nn12	77200	1800	1670
Cc1c(C(=O)NCCN2CCCC2)cnn1-c1ncc2c(n1)-c1ccccc1SC2	> 10000	< 14.3	525
COc1ccc(C2CC(=O)C3=C(C2)NC(C)=C(C(=O)OC(C)C)C3c2ccc(F)cc2)cc1 (centres undefined)	> 100000	23.2	83.4
CC(=O)N(C1=C(N2CCOCC2)C(=O)c2ccccc2C1=O)c1ccc(Cl)c(Cl)c1	12200	191	220
COC(=O)c1c(-c2ccccc2Cl)csc1N	> 10000	> 854	> 1250
O=C(NCc1ccco1)c1ccc(OC2CCN(CC3CCCCC3)CC2)c(Cl)c1	23500	23.6	95.1
Cc1ccc(S(=O)(=O)Nc2nc3n(n2)C(c2ccccc2)C=C(c2ccccc2)N3)cc1 (centres undefined)	> 10000	> 1250	> 1070
COc1ccc(C2C(C(=O)Nc3cnc4ccccc4c3)c3ccccc3C(=O)N2Cc2ccc(F)cc2)cc1 (centres undefined)	> 100000	941	2170
CC[n+]1c(/C=C/c2ccc(OC)cc2)ccc2ccccc21	> 10000	85.8	110
Cc1c2ccccc2c(-c2ccccc2)c2ccccc12	6000	626	1230
O=C(Nc1ccc(C(=O)Nc2ccc(C3=NCCCN3)cc2)cc1)Nc1ccc(C2=NCCCN2)cc1	> 7280	20.4	34.4
COc1ccccc1N(CN1C(=O)c2ccc(Br)cc2C1=O)C(C)=O	> 10000	> 171	> 1250
CCOC(=O)NN=C(C)c1ccc(C(C)=NNC(=O)OCC)cc1	> 100000	747	> 5590
CCN(CC)C(=O)COc1ccccc1CNCc1ccccc1	> 10000	1440	> 1250
COc1ccc(C(=O)/C(C#N)=C/NC2CCN(Cc3ccccc3)CC2)cc1	> 10000	> 1580	256
COc1ccc(OC)c(-c2ccc(O)c(CN3CCC(c4ccccc4)CC3)c2)c1	> 100000	9.12	508
O=[N+]([O-])c1ccc(S(=O)(=O)N2CCN(C(=S)NCC3CCCO3)CC2)cc1 (centres undefined)	> 100000	101	136
Cc1ccc(Cn2c(=N)n(CC(O)c3ccc(Cl)c(Cl)c3)c3ccccc32)cc1 (centres undefined)	6000	61.3	107

Compound	CC50 [1] [nM]	EC50 [2] [nM]	EC50 [3] [nM]
COC(=O)c1ccc(C2C3=C(O)CC(c4cccs4)CC3=Nc3ccccc3N2C(=O)c2ccccc2)cc1 (centres undefined)	25000	625	436
COc1ccc(C(c2ccc(N(C)C)cc2)c2ccc(N(C)C)cc2)cc1	> 100000	277	353
CC1CCCCN1CC(=O)N1CCN(C(=O)CN2CCCCC2C)CC1.CC=O (centres undefined)	> 4250	60.3	> 1250
OC(CNC1CCN(Cc2ccccc2)CC1)COc1ccc(Br)cc1 (centres undefined)	> 10000	499	745
O=C(Nc1ccc(F)c(F)c1)c1cc2cc(C3(O)CCN(Cc4ccccc4F)CC3)ccc2o1	12800	1850	1500
CCN(CC)c1nc(Nc2cc(C)ccc2C)nc(Nc2ccccc2O)n1	> 10000	159	439
CCOC(=O)C1=C(C)NC2=C(C(=O)C(C(=O)OCC)C(c3ccccc3OC)C2)C1c1cccs1 (centres undefined)	> 100000	241	1830
Cc1ccc(C2(C)CC(C)(C)N(C(=O)Cc3ccccc3)c3ccc(C(c4ccccc4)(c4ccccc4)c4ccccc4)cc32)cc1 (centres undefined)	> 100000	5680	4790
CC1=C(C(=O)OC(C)C)C(c2cccc([N+](=O)[O-])c2)C2=C(CCCC2=O)N1 (centres undefined)	> 100000	854	> 11100
COc1ccc(C(=O)C(C)[n+]2cccc3ccc4cccnc4c32)cc1 (centres undefined)	> 10000	> 577	195
Cc1ccc(Nc2nc3c(N)nnc(N)c3nc2Nc2ccc(C)cc2)cc1	13300	2210	6120
OC(CNCc1ccco1)Cn1c2ccc(Cl)cc2c2cc(Cl)ccc21 (centres undefined)	> 100000	881	5050
COc1ccc(/C=C/C(=O)Nc2ccc(S(=O)(=O)N3CCOCC3)cc2)cc1	> 10000	891	> 1620
Nc1cc(-c2cccs2)n[nH]1	> 100000	> 5810	> 11200
CCC(Cc1cnc2nc(N)nc(N)c2n1)c1ccc(C(=O)N[C@@H](CCC(=O)O)C(=O)O)cc1 (some centres undefined) [EDATREXATE]	30.4	108	14.8
CC(C)c1ccc(-c2cncc(N[C@@H](C)c3ccccc3)n2)cc1	> 10000	846	> 558
O=C(C=Cc1ccccc1)NNC(=O)c1cccnc1	> 100000	1010	> 12500
CN(C)c1cccc(Nc2cc(-c3ccc(CC(N)C(=O)O)cc3)nc3ccnn23)c1 (centres undefined)	> 10000	594	600
O=C(NCCCCNc1ccnc2cc(Cl)ccc12)c1cccc(Br)c1	> 10000	453	422
O=S1(=O)CCC(O)c2ccsc21 (centres undefined)	> 100000	> 12500	4180
Cc1cc(Oc2ncnc(N(C)CC(=O)OC(C)(C)C)c2[N+](=O)[O-])c2nncn2n1	> 10000	> 684	> 1630
COC(=O)c1c(-c2c(Cl)cccc2Cl)noc1/C=C/Nc1ccc(Cl)cc1	> 10000	< 2.95	13.5
CC(C)N(CC(=O)Nc1cc(C(C)(C)C)nn1-c1ccc(Cl)c(Cl)c1)C(=O)c1ccc(C(C)(C)C)cc1	> 100000	7330	6030

Compound	CC50 [1] [nM]	EC50 [2] [nM]	EC50 [3] [nM]
COC(=O)c1ccc(Cn2cc(C=O)c3ccccc32)o1	> 10000	> 707	> 1250
Cn1c(C(=O)c2cccc3ccccc23)nc2ccccc21	21500	32.6	6.92
COC(=O)c1ccc2c(=O)n(Cc3ccc4c(c3)OCO4)c(SCC(=O)n3nc(C)cc3N)nc2c1	> 10000	41.2	144
CN[C@H]1C[C@@H]2O[C@](C)([C@H]1O)n1c3ccccc3c3c4c(c5c6ccccc6n2c5c31)C(=O)NC4	32.3	52.1	55.4
C[n+]1ccc(C2OC2c2ccccc2)c2ccccc21 (centres undefined)	> 10000	1740	1380
Cc1cc(Nc2cc(Cl)cc(Cl)c2)n2nc(C)nc2n1	> 100000	1870	1330
O=C(N/C(=C/C=C/c1ccccc1)C(=O)N1CCOCC1)c1ccccc1	> 10000	98.5	> 1250
O=C(C1CCN(S(=O)(=O)c2cccc3nonc23)CC1)N1CCCc2ccccc21	> 10000	534	> 1250
CC(=O)N(C1=C(N2CCCCC2)C(=O)c2ccccc2C1=O)c1ccc(F)cc1	33300	34.5	155
COC(=O)C1=C(C)NC2=C(C(=O)CC(c3ccc(OC)c(OC)c3)C2)C1c1cccc(Cl)c1Cl (centres undefined)	> 100000	93.7	207
CCn1c(SCCCCNC(=O)c2cc([N+](=O)[O-])cc([N+](=O)[O-])c2)nc(-c2ccc(C)cc2)c1-c1ccc(C)cc1	> 10000	73.1	679
O=C(Nc1ccc(Cl)cc1)Nc1ccc(Br)cn1	> 100000	712	> 12500
C/C=C1/C[C@H]2[C@@H](OC)Nc3cc(O)c(OC)cc3C(=O)N2C1	8490	875	1030
COc1cc(C(=O)C=CNc2ccc(N(C)C)cc2)cc(OC)c1OC	> 100000	905	2070
FC(F)(F)COc1ccc(OCC(F)(F)F)c(-c2ncnn2-c2ccccc2)c1	> 100000	> 12500	> 9910
N#Cc1ccc(N2CCN(C(=O)c3ccc(F)cc3Cl)CC2)cc1	> 10000	67.5	155
CCc1cc(=O)n(C)c(SC(CC)C(=O)Nc2ccc(F)cc2)n1 (centres undefined)	> 100000	383	484
Cc1ccccc1/C=C1\SC(=Nc2ccccc2)NC1=O	> 100000	> 12500	1060
O[C@@H](c1cc(C(F)(F)F)nc2c(C(F)(F)F)cccc12)[C@H]1CCCCN1	> 6250	2.37	51.7
C=CC[N+]1(CC#Cc2cccc3ccccc23)CCCCC1	> 100000	396	683
Cc1cc2nc(NC(=N)N)nc(C)c2cc1C	> 100000	> 9300	2660
CCCCCCCC[n+]1c(C)n(CC)c2ccc(Cl)cc21	54900	239	139
